Data: patent publication US10654834B2 (Venenum Biodesign, LLC, priority 2016, dated 2020)

Key:
[1] = Plasma concentration of compound in DIO mice over 24 hours; format: in vivo, mouse; details: 30 mg/kg p.o. + sitagliptin 10 mg/kg, 6, 12, 18, 24 h
Protocol: Plasma Concentration of Compound in Mice
In these studies, the plasma concentration of the compounds of the present invention was measured in DIO mice as well as lean C57BL/6N mice.
In the first study, (data represented in FIG. 10), plasma concentration levels were measured over a 24 hour time period in DIO mice. Following the treatment with the compound, the blood was collected via cardiac puncture at 6, 12, 18, and 24 hours. The blood samples (>250 μL) were placed in an EDTA K^2+ tube and plasma was processed for analytical chemistry and analyzed by LCMS/MS method as described in Example 81. FIG. 10 depicts the plasma concentrations of Compound 268 after oral administration at 30 mg/kg in combination with 10° mg/kg sitagliptin. The plasma concentrations of Compound 268 were below 10 nM at every tested time points.

[2] = Portal vein versus systemic pharmacokinetics in hepatic portal vein cannulated CD(SD) rats; format: in vivo; details: male, rat, 10 mg/kg oral; for AUC(0-t): read-out: AUC (0→7 h)
Protocol: Low Level of Compounds is Attributed to Low Intestinal Absorption
In this study, we determined if low plasma level of the compounds of the present invention is due to low absorption in the gut, or due to the first pass effect (i.e., absorption followed by a rapid degradation of compounds by liver). Hepatic portal vein cannulated male CD(SD) rats obtained from Charles River Laboratory were utilized. In brief, Compound 268 was administered orally at 10 mg/kg, and the blood was obtained simultaneously from the portal vein and systemic circulation (retro-orbital sinus) at predose, 0.25, 0.5, 1, 2, and 4 hours post-dose, in EDTA coated tubes. The samples were processed into plasma and quantification of compound levels in the plasma was accomplished by means of LC-MS/MS analysis as described in Example 81.

[3] = Bile weight after 6 weeks of dosing in DIO mice; format: in vivo, mouse; details: about 6 h after final dose
Excerpt: (§1) In the next series of studies (Examples 93-99), Male DIO mice were received at 12 weeks of age (from Taconic), and were single-housed at the testing facility and acclimated for at least 2 weeks. The mice were provided a high fat diet [Research Diet D12492 (60% Fat kcal)] while in the testing facility. Before the study initiation, the animals were randomized into 5 experimental groups by body weight. The vehicle group contained only 0.5% carboxymethylcellulose (medium viscosity)+0.25% Tween-80. The second group contained 10 mg/kg of the DPP-IV inhibitor Sitagliptin while the third group contained 30 mg/kg Compound 268. The fourth group contained the combination of 10 mg/kg Sitagliptin and 30 mg/kg Compound 268. The fifth group was the positive control for weight loss, Rimonabant. All mice were dosed BID at approximately 6:00 am and again at approximately 4:00 pm. The positive control rimonabant was administered at a dose of 10 mg/kg in the afternoon and the morning dosing was vehicle (no compound).
No Bile Weight Increase after 6 Weeks of Dosing Compounds
Compounds of the present invention were dosed for multiple weeks and were evaluated to determine if they lead to an increase in bile weight.
In this example, the protocol from Example 93 was utilized. […]

GLP-1 = GLP-1 levels after 6 weeks of dosing in DIO mice; format: in vivo, mouse; details: 30 mg/kg + sitagliptin 10 mg/kg BID, 6 h after final dose, versus sitagliptin alone
Excerpt: as §1, with “compound). […]” for “compound).”
Compounds of the present invention were dosed for multiple weeks and were evaluated to determine if they produce sustained GLP-1 levels.
In this example, the protocol from Example 93 was utilized. […] The active form of GLP-1 [GLP-1 (7-36) amide] was analyzed using Meso Scale Discovery System according to the manufacturer's directions (item number K150HYC). […]

[4] = 6-week DEXA body composition analysis in DIO mice; format: in vivo, mouse; details: 6 weeks BID dosing
Excerpt: as §1
6-Week Dexa Analysis after Multiple Weeks of Dosing Compounds
Compounds of the present invention were dosed for multiple weeks and the mice were analyzed to determine whether weight loss seen in Example 93 was due to a loss in fat or lean mass.
In this example, the protocol from Example 93 was utilized. The day of experiment, the mice were anesthetized using 2.5% avertin [tert-amyl alcohol (Aldrich #15,256-3) and 2,2,2-tribromoethanol (Aldrich # T4, 840-2)]. Their body composition was assessed using the PIXImus2 X-ray unit (GE Lunar Corporation, Madison, Wis.) connected to a computer equipped with LUNAR PIXImus2 software. The head region of each mouse was excluded from the analysis. The following measurements were automatically measured or calculated by the PIXImus2 software: bone mineral density (BMD), bone mineral content (BMC), bone area (B Area), tissue area (T Area), percent fat, and total tissue mass (TTM). Fat mass, the percentage of lean mass, and lean mass, were calculated manually as follows: % Lean=100−% Fat Lean Mass=TTM×(100−% Fat) Fat Mass=TTM×% Fat

[5] = Comparison of PK in DIO mice and lean mice; format: in vivo, mouse; details: for Cmax / AUC(0-t) / Tmax: mouse, plasma; for AUC(0-t): read-out: AUC (0→4 h)
Protocol: Comparison of PK in DIO Mice and Lean Mice
The PK characteristics of Compound 268 were examined in non-fasted lean C57BL/6N and DIO mice (Taconic). Compound 268 was orally administered to both groups at 10 mg/kg by oral gavage and plasma concentration of the compound was determined as described in Example 81.
In addition, PK parameters were determined for Compound 268 (i.e., Cmax, Tmax, and AUC) following oral administration in four groups of mice: (i) fasted lean mice; (ii) non-fasted lean mice; (iii) non-fasted DIO mice; and (iv) lean mice receiving ABT.
The ABT treatment confirms that the low Cmax value of Compound 268 is attributed to […].

[6] = plasma (portal vein blood), Portal Vein bleed
[7] = plasma (systemic blood), Peripheral bleed (retro-orbital sinus)
[8] = C57BL/6N, po, 10 mg/kg, Non-fasted DIO mice, oral (Table 58)
[9] = C57BL/6N, po, 10 mg/kg, Non-fasted Lean mice, oral (Table 58)
[10] = po, 10 mg/kg, Fasted Lean mice, oral (Table 58)
[11] = po, 10 mg/kg, lean mice receiving ABT (150 mg/kg), oral (Table 58)

plasma concentration of compound [1]: below 10 nM
Cmax [2, 6]: 15.7 ± 6.7 ng/mL
Tmax [2, 6]: 15 to 60 min
AUC(0-t) [2, 6]: 49.1 ± 47.3 ng·h/mL
Cmax [2, 7]: 43.9 ± 50.2 ng/mL
Tmax [2, 7]: 15 to 60 min
AUC(0-t) [2, 7]: 76.2 ± 84.3 ng·h/mL
bile weight / gallbladder size after 6 weeks of dosing [3]: does not show an increase in size
Cmax ([5]; C57BL/6N, po, 10 mg/kg, DIO mice, Non-fasted PK, p.o. (Table 57)): 0.6 nM
Cmax ([5]; C57BL/6N, po, 10 mg/kg, Lean mice, Non-fasted PK, p.o. (Table 57)): 2.1 nM
Cmax [5, 8]: 0.57 nM
AUC(0-t) [5, 8]: 0.76 ng·h/mL
Cmax [5, 9]: 2.1 nM
AUC(0-t) [5, 9]: 2.9 ng·h/mL
Tmax ([5]; C57BL/6N, po, DIO mice, Non-fasted PK, 10 mg/kg, p.o. (Table 57)): 60 min
Tmax ([5]; 10 mg/kg, Fasted Lean mice, oral (Table 58)): 15 min
Cmax [5, 10]: 12 nM
AUC(0-t) [5, 10]: 18 ng·h/mL
Cmax [5, 11]: 4.2 nM
AUC(0-t) [5, 11]: 5.1 ng·h/mL
Tmax ([5]; lean mice receiving ABT (150 mg/kg), oral (Table 58)): 30 min
Cmax profile in fasted lean, non-fasted lean, non-fasted DIO mice ([5]; oral administration): low Cmax profile
Compound: N#Cc1ccc(CCNC(=O)[C@@H]2CCN2c2cc(N3CCC(CCNC(=O)NCCC(=O)O)CC3)nc(C(F)(F)F)n2)cc1 [Compound 268, (S)-3-(3-(2-(1-(6-(2-((4-cyanophenethyl)carbamoyl)azetidin-1-yl)-2-(trifluoromethyl)pyrimidin-4-yl)piperidin-4-yl)ethyl)ureido)propanoic acid]
plasma GLP-1 level after 6 weeks of dosing (GLP-1): significantly increased level of GLP-1
fat mass versus lean mass (DEXA) [4]: due to a loss in the Fat Mass
loss in weight / total tissue mass (DEXA) [4]: about the same loss in weight
